Results from patent US20170275261A1, “1,3,4-THIADIAZOLES HAVING A HERBICIDAL ACTIVITY, THEIR AGRONOMICAL COMPOSITIONS AND RELATIVE USE” (ISAGRO S.P.A., priority 2014, published 2017).

Assays:
Assay type in all cases: in vivo
Details in all cases: dose 250 g/ha, fifteen days after treatment, damage vs control
Poa Annua [1] = experiment: Herbicidal activity in post-emergence
Description: (§1) The herbicidal activity in post-emergence of the compounds of the invention was evaluated according to the following operating procedures.
(§2) The plant species of interest (weeds or crops) were seeded in vases having an upper diameter of 10 cm, a height of 10 cm and containing sandy earth. 10 vases were used for each plant species.
(§3) Water was added to each vase in a suitable quantity for the germination of the seeds. The vases were then divided into two groups, each containing 5 vases for each weed or crop.
(§4) The second group was only treated with a hydroacetonic solution containing acetone at 20% by volume and Tween 20 at 0.5% by weight, and was used as a comparison (control).
(§5) All the vases were kept under observation in a conditioned environment under the following environmental conditions: • temperature: 24° C.; • relative humidity: 60%; • photo-period: 16 hours; • light intensity: 12,000 lux.
(§6) Every two days the vases were uniformly watered to ensure a sufficient humidity degree for a good growth of the plants.

Eleusine indica [2] = experiment: Herbicidal activity in post-emergence
Description: as §1, §2, §3, §4, §5, §6

Alopecurus myosuroides [3] = experiment: Herbicidal activity in post-emergence
Description: as §1, §2, §3, §4, §5, §6

Echinochloa crusgalli [4] = experiment: Herbicidal activity in post-emergence
Description: as §1, §2, §3, §4, §5, §6

Lolium rigidum [5] = experiment: Herbicidal activity in post-emergence
Description: as §1, §2, §3, §4, §5, §6

Digitaria sanguinalis [6] = experiment: Herbicidal activity in post-emergence
Description: as §1, §2, §3, §4, §5, §6

Setaria viridis [7] = experiment: Herbicidal activity in post-emergence
Description: as §1, §2, §3, §4, §5, §6

Apera spica-venti [8] = experiment: Herbicidal activity in post-emergence
Description: as §1, §2, §3, §4, §5, §6

Poa Annua [9] = experiment: Herbicidal activity in pre-emergence
Description: (§7) The herbicidal activity in pre-emergence of the compounds of the invention was evaluated according to the following operating procedures.
as §2, §3
(§8) One day after seeding, the first group of vases was treated with a dispersion having the following composition:
(§9) Said dispersion was prepared by adding a compound of the present invention at the desired concentration to a hydroacetonic solution containing acetone at 20% by volume and Tween 20 at 0.5% by weight, with respect to the total weight of the dispersion.
(§10) The desired concentration of a compound of the present invention corresponds to the concentration necessary for allowing the application of an effective dose of said compound equal to 250 g/ha to the plant species of interest.
as §4, §5, §6

Eleusine indica [10] = experiment: Herbicidal activity in pre-emergence
Description: as §7, §2, §3, §8, §9, §10, §4, §5, §6

Alopecurus myosuroides [11] = experiment: Herbicidal activity in pre-emergence
Description: as §7, §2, §3, §8, §9, §10, §4, §5, §6

Echinochloa crusgalli [12] = experiment: Herbicidal activity in pre-emergence
Description: as §7, §2, §3, §8, §9, §10, §4, §5, §6

Lolium rigidum [13] = experiment: Herbicidal activity in pre-emergence
Description: as §7, §2, §3, §8, §9, §10, §4, §5, §6

Digitaria sanguinalis [14] = experiment: Herbicidal activity in pre-emergence
Description: as §7, §2, §3, §8, §9, §10, §4, §5, §6

Setaria viridis [15] = experiment: Herbicidal activity in pre-emergence
Description: as §7, §2, §3, §8, §9, §10, §4, §5, §6

Apera spica-venti [16] = experiment: Herbicidal activity in pre-emergence
Description: as §7, §2, §3, §8, §9, §10, §4, §5, §6

SMILES | Herbicidal activity in post-emergence (Poa Annua [1]) | Herbicidal activity in post-emergence (Eleusine indica [2]) | Herbicidal activity in post-emergence (Alopecurus myosuroides [3]) | Herbicidal activity in post-emergence (Echinochloa crusgalli [4]) | Herbicidal activity in post-emergence (Lolium rigidum [5]) | Herbicidal activity in post-emergence (Digitaria sanguinalis [6]) | Herbicidal activity in post-emergence (Setaria viridis [7]) | Herbicidal activity in post-emergence (Apera spica-venti [8]) | Herbicidal activity in pre-emergence (Poa Annua [9]) | Herbicidal activity in pre-emergence (Eleusine indica [10]) | Herbicidal activity in pre-emergence (Alopecurus myosuroides [11]) | Herbicidal activity in pre-emergence (Echinochloa crusgalli [12]) | Herbicidal activity in pre-emergence (Lolium rigidum [13]) | Herbicidal activity in pre-emergence (Digitaria sanguinalis [14]) | Herbicidal activity in pre-emergence (Setaria viridis [15]) | Herbicidal activity in pre-emergence (Apera spica-venti [16])
O=S(=O)(c1nnc(C(F)(F)F)s1)c1c(Cl)cccc1Cl [CR1, 2-(2,6-dichlorophenylsulfonyl)-5-(trifluoromethyl)-1,3,4-thiadiazole, reference compound] | 0 (0-10% of damage) | 0 (0-10% of damage) | 0 (0-10% of damage) | 0 (0-10% of damage) | 0 (0-10% of damage) | 0 (0-10% of damage) | 0 (0-10% of damage) | 0 (0-10% of damage) | 0 (0-10% of damage) | 0 (0-10% of damage) | 0 (0-10% of damage) | 0 (0-10% of damage) | 0 (0-10% of damage) | 0 (0-10% of damage) | 0 (0-10% of damage) | 0 (0-10% of damage)
Cc1nnc([S+]([O-])Cc2c(Cl)cccc2Cl)s1 (stereo not shown) [Nr. 1, 2-[(2,6-dichlorobenzyl)-sulfinyl]-5-methyl-1,3,4-thiadiazole] | 5 (91% of damage-death of the plant) | 5 (91% of damage-death of the plant) | 4 (71-90% of damage) | 4 (71-90% of damage) | 4 (71-90% of damage) | 5 (91% of damage-death of the plant) | 4 (71-90% of damage) | 5 (91% of damage-death of the plant) | 5 (91% of damage-death of the plant) | 5 (91% of damage-death of the plant) | 4 (71-90% of damage) | 4 (71-90% of damage) | 4 (71-90% of damage) | 5 (91% of damage-death of the plant) | 4 (71-90% of damage) | 5 (91% of damage-death of the plant)
Cc1nnc([S+]([O-])Cc2c(C(F)(F)F)nn(C)c2OCC(F)(F)F)s1 (stereo not shown) [Nr. 9] | 5 (91% of damage-death of the plant) | 5 (91% of damage-death of the plant) | 5 (91% of damage-death of the plant) | 5 (91% of damage-death of the plant) | 4 (71-90% of damage) | 5 (91% of damage-death of the plant) | 4 (71-90% of damage) | 5 (91% of damage-death of the plant) | 5 (91% of damage-death of the plant) | 5 (91% of damage-death of the plant) | 5 (91% of damage-death of the plant) | 5 (91% of damage-death of the plant) | 5 (91% of damage-death of the plant) | 5 (91% of damage-death of the plant) | 5 (91% of damage-death of the plant) | 5 (91% of damage-death of the plant)
CCc1nnc([S+]([O-])Cc2c(C(F)(F)F)nn(C)c2OCC(F)(F)F)s1 (stereo not shown) [Nr. 121] | 5 (91% of damage-death of the plant) | 5 (91% of damage-death of the plant) | 4 (71-90% of damage) | 5 (91% of damage-death of the plant) | 4 (71-90% of damage) | 5 (91% of damage-death of the plant) | 4 (71-90% of damage) | 5 (91% of damage-death of the plant) | 5 (91% of damage-death of the plant) | 5 (91% of damage-death of the plant) | 5 (91% of damage-death of the plant) | 5 (91% of damage-death of the plant) | 5 (91% of damage-death of the plant) | 5 (91% of damage-death of the plant) | 5 (91% of damage-death of the plant) | 5 (91% of damage-death of the plant)
